# Measured values published in article PMC5218480 (PLoS ONE, 2017).
# System: MV-4-11 cells
# Assay: Gene expression microarray analysis (Affymetrix PrimeView) and GSEA
# Format: cell-based, human
# Parameters: RFU PODN (11730768_x_at) / Fold change /veh PODN (11730768_x_at) / RFU LINC00158 (11744669_a_at) / Fold change /veh LINC00158 (11744669_a_at) / RFU DUSP10 (11751237_a_at) / Fold change /veh DUSP10 (11751237_a_at) / RFU ID3 (11757404_x_at) / Fold change /veh ID3 (11757404_x_at) / RFU PLEKHG5 (11737974_s_at) / Fold change /veh PLEKHG5 (11737974_s_at) / RFU LRRC4B (11730491_at) / Fold change /veh LRRC4B (11730491_at) / RFU GIMAP4 (11747438_a_at) / Fold change /veh GIMAP4 (11747438_a_at) / RFU KRT8 (11758183_x_at) / Fold change /veh KRT8 (11758183_x_at) / RFU CNN1 (11734310_a_at) / Fold change /veh CNN1 (11734310_a_at) / RFU VPS37D (11726825_at) / Fold change /veh VPS37D (11726825_at) / RFU C10orf10 (11716522_x_at) / Fold change /veh C10orf10 (11716522_x_at) / RFU KIR2DL2 /// KIR2DL4 /// KIR2DL5A /// KIR2DL5B /// KIR2DS1 /// KIR2DS2 /// KIR2DS3 /// KIR2DS4 /// KIR3DL3 /// KIR3DL3 /// KIR3DS1 (11738374_at) / Fold change /veh KIR2DL2 /// KIR2DL4 /// KIR2DL5A /// KIR2DL5B /// KIR2DS1 /// KIR2DS2 /// KIR2DS3 /// KIR2DS4 /// KIR3DL3 /// KIR3DL3 /// KIR3DS1 (11738374_at) / RFU C1QL1 (11718748_at) / Fold change /veh C1QL1 (11718748_at) / RFU TMPRSS4 (11747572_a_at) / Fold change /veh TMPRSS4 (11747572_a_at) / RFU HAMP (11756126_x_at) / Fold change /veh HAMP (11756126_x_at) / RFU RNFT2 (11725882_a_at) / Fold change /veh RNFT2 (11725882_a_at) / RFU NR4A2 (11747474_a_at) / Fold change /veh NR4A2 (11747474_a_at) / RFU ABCC12 (11746883_a_at) / Fold change /veh ABCC12 (11746883_a_at) / RFU TMEM136 (11760407_x_at) / Fold change /veh TMEM136 (11760407_x_at) / RFU CLDN22 /// WWC2 (11732394_at) / Fold change /veh CLDN22 /// WWC2 (11732394_at) / RFU HLA-DPB1 (11760878_x_at) / Fold change /veh HLA-DPB1 (11760878_x_at) / RFU SPINT1 (11716480_a_at) / Fold change /veh SPINT1 (11716480_a_at) / RFU GAP43 (11754022_s_at) / Fold change /veh GAP43 (11754022_s_at) / RFU A4GNT (11735810_at) / Fold change /veh A4GNT (11735810_at) / RFU PRB3 (11715151_x_at) / Fold change /veh PRB3 (11715151_x_at) / RFU TUBB4B (11761932_at) / Fold change /veh TUBB4B (11761932_at) / RFU CAPN14 (11732068_a_at) / Fold change /veh CAPN14 (11732068_a_at) / RFU TMCC2 (11721928_a_at) / Fold change /veh TMCC2 (11721928_a_at) / RFU IRGQ (11745062_a_at) / Fold change /veh IRGQ (11745062_a_at) / RFU FAM174B (11720279_a_at) / Fold change /veh FAM174B (11720279_a_at) / RFU TMPRSS4 (11748680_a_at) / Fold change /veh TMPRSS4 (11748680_a_at) / RFU FAM212B (11763350_a_at) / Fold change /veh FAM212B (11763350_a_at) / RFU PLEKHG5 (11743358_a_at) / Fold change /veh PLEKHG5 (11743358_a_at) / RFU ZSCAN30 (11745921_a_at) / Fold change /veh ZSCAN30 (11745921_a_at) / RFU CMKLR1 (11741424_a_at) / Fold change /veh CMKLR1 (11741424_a_at) / RFU LOC101060620 /// MAPK8IP1 (11723275_at) / Fold change /veh LOC101060620 /// MAPK8IP1 (11723275_at) / RFU SPTSSB (11747773_x_at) / Fold change /veh SPTSSB (11747773_x_at) / RFU PRSS12 (11739890_at) / Fold change /veh PRSS12 (11739890_at) / RFU BIN1 (11741810_x_at) / Fold change /veh BIN1 (11741810_x_at) / RFU WNT11 (11732464_a_at) / Fold change /veh WNT11 (11732464_a_at) / RFU C10orf10 (11716521_a_at) / Fold change /veh C10orf10 (11716521_a_at) / RFU C5orf56 (11738089_at) / Fold change /veh C5orf56 (11738089_at) / RFU CYB561 (11721691_x_at) / Fold change /veh CYB561 (11721691_x_at) / RFU ANKRD19P (11752326_a_at) / Fold change /veh ANKRD19P (11752326_a_at) / RFU OR2T12 /// OR2T33 /// OR2T8 (11738714_s_at) / Fold change /veh OR2T12 /// OR2T33 /// OR2T8 (11738714_s_at) / RFU VCAN (11748164_a_at) / Fold change /veh VCAN (11748164_a_at) / RFU JSRP1 (11732532_at) / Fold change /veh JSRP1 (11732532_at) / RFU KRTAP10-11 (11738290_x_at) / Fold change /veh KRTAP10-11 (11738290_x_at) / RFU MYO3A (11730013_a_at) / Fold change /veh MYO3A (11730013_a_at) / RFU EBF3 (11725865_a_at) / Fold change /veh EBF3 (11725865_a_at) / RFU CAMK2N1 (11719241_x_at) / Fold change /veh CAMK2N1 (11719241_x_at) / RFU C5orf56 (11738088_a_at) / Fold change /veh C5orf56 (11738088_a_at) / RFU OLFML3 (11715873_a_at) / Fold change /veh OLFML3 (11715873_a_at) / RFU LOC100653217 /// NTM (11731650_a_at) / Fold change /veh LOC100653217 /// NTM (11731650_a_at) / RFU MAPK11 (11762145_a_at) / Fold change /veh MAPK11 (11762145_a_at) / RFU FIZ1 (11724087_x_at) / Fold change /veh FIZ1 (11724087_x_at) / RFU OASL (11726364_x_at) / Fold change /veh OASL (11726364_x_at) / RFU SOX15 (11748057_x_at) / Fold change /veh SOX15 (11748057_x_at) / RFU CD79A (11719716_a_at) / Fold change /veh CD79A (11719716_a_at) / RFU HIST1H1D (11736915_at) / Fold change /veh HIST1H1D (11736915_at) / RFU CASKIN2 (11723855_a_at) / Fold change /veh CASKIN2 (11723855_a_at) / RFU LOC730098 (11760151_x_at) / Fold change /veh LOC730098 (11760151_x_at) / RFU OR4N2 (11742367_at) / Fold change /veh OR4N2 (11742367_at) / RFU PRRT2 (11749266_a_at) / Fold change /veh PRRT2 (11749266_a_at) / RFU SNX32 (11753110_a_at) / Fold change /veh SNX32 (11753110_a_at) / RFU CDHR5 (11726645_a_at) / Fold change /veh CDHR5 (11726645_a_at) / RFU RCAN1 (11760418_a_at) / Fold change /veh RCAN1 (11760418_a_at) / RFU FAM167A (11723789_a_at) / Fold change /veh FAM167A (11723789_a_at) / RFU FAM26E (11764081_at) / Fold change /veh FAM26E (11764081_at) / RFU ISYNA1 (11749810_s_at) / Fold change /veh ISYNA1 (11749810_s_at) / RFU ACY1 (11761880_at) / Fold change /veh ACY1 (11761880_at) / RFU 11764098_at / Fold change /veh 11764098_at / RFU SAMD14 (11745864_x_at) / Fold change /veh SAMD14 (11745864_x_at) / RFU NPB (11741838_a_at) / Fold change /veh NPB (11741838_a_at) / RFU TMPRSS6 (11731388_a_at) / Fold change /veh TMPRSS6 (11731388_a_at) / RFU KRTAP10-2 (11738614_at) / Fold change /veh KRTAP10-2 (11738614_at) / RFU ARHGAP8 /// PRR5-ARHGAP8 (11727945_x_at) / Fold change /veh ARHGAP8 /// PRR5-ARHGAP8 (11727945_x_at) / RFU KRTAP5-7 /// NADSYN1 (11734609_at) / Fold change /veh KRTAP5-7 /// NADSYN1 (11734609_at) / RFU RASL12 (11751679_a_at) / Fold change /veh RASL12 (11751679_a_at) / RFU CDKN2B (11736163_a_at) / Fold change /veh CDKN2B (11736163_a_at) / RFU PRF1 (11729649_at) / Fold change /veh PRF1 (11729649_at) / RFU, ZNF638 /// ZNF638-IT1 / Fold change vs veh, ZNF638 /// ZNF638-IT1 / RFU, PANK3 / Fold change vs veh, PANK3 / RFU, SH3YL1 / Fold change vs veh, SH3YL1 / RFU, ZEB2 / Fold change vs veh, ZEB2 / RFU, NRIP1 / Fold change vs veh, NRIP1 / RFU, PTTG1IP / Fold change vs veh, PTTG1IP / RFU, CAPN2 / Fold change vs veh, CAPN2 / RFU, MED14 / Fold change vs veh, MED14 / RFU, SNORA58 / Fold change vs veh, SNORA58 / RFU, C1orf63 / Fold change vs veh, C1orf63 / RFU, LRRFIP1 / Fold change vs veh, LRRFIP1 / RFU, NDUFAF7 / Fold change vs veh, NDUFAF7 / RFU, SLC12A2 / Fold change vs veh, SLC12A2 / RFU, IBTK / Fold change vs veh, IBTK / RFU, ESF1 / Fold change vs veh, ESF1 / Fold change vs veh, TMEM50B / RFU, TAOK1 / Fold change vs veh, TAOK1 / RFU, ACBD3 / Fold change vs veh, ACBD3 / RFU, TMA16 / Fold change vs veh, TMA16 / RFU, RWDD3 / Fold change vs veh, RWDD3 / RFU, BCAT1 / Fold change vs veh, BCAT1 / RFU, EDEM3 / Fold change vs veh, EDEM3 / RFU, TMEM33 / Fold change vs veh, TMEM33 / RFU, WDR75 / Fold change vs veh, WDR75 / RFU, AHCTF1 / Fold change vs veh, AHCTF1 / RFU, TFRC / Fold change vs veh, TFRC / RFU, ZDHHC17 / Fold change vs veh, ZDHHC17 / RFU, NOM1 / Fold change vs veh, NOM1 / RFU, ARL8B / Fold change vs veh, ARL8B / RFU, ZBTB11 / Fold change vs veh, ZBTB11 / RFU, TAMM41 / Fold change vs veh, TAMM41 / RFU, KIAA1704 /// LOC100996395 / Fold change vs veh, KIAA1704 /// LOC100996395 / RFU, ING1 / Fold change vs veh, ING1 / RFU, TRMT61B / Fold change vs veh, TRMT61B / RFU, FUBP3 / Fold change vs veh, FUBP3 / RFU, TP53 / Fold change vs veh, TP53 / RFU, TNKS2 / Fold change vs veh, TNKS2 / RFU, ZFP14 / Fold change vs veh, ZFP14 / RFU, ACTR2 / Fold change vs veh, ACTR2 / RFU, PPP3R1 / Fold change vs veh, PPP3R1 / RFU, PIK3R1 / Fold change vs veh, PIK3R1 / RFU, HNRNPA1 / Fold change vs veh, HNRNPA1 / RFU, RNF170 / Fold change vs veh, RNF170 / RFU, ZNF28 / Fold change vs veh, ZNF28 / RFU, RNGTT / Fold change vs veh, RNGTT / RFU, OGT / Fold change vs veh, OGT / RFU, BRD1 / Fold change vs veh, BRD1 / RFU, MARS / Fold change vs veh, MARS / RFU, ZNF655 / Fold change vs veh, ZNF655 / RFU, FAHD1 / Fold change vs veh, FAHD1 / RFU, BDP1 / Fold change vs veh, BDP1 / RFU, LRRCC1 / Fold change vs veh, LRRCC1 / RFU, ARID1A / Fold change vs veh, ARID1A / RFU, ZNF146 / Fold change vs veh, ZNF146 / RFU, ZNF330 / Fold change vs veh, ZNF330 / RFU, GPN3 / Fold change vs veh, GPN3 / RFU, C9orf123 / Fold change vs veh, C9orf123 / RFU, N4BP2L2 / Fold change vs veh, N4BP2L2 / RFU, ARFIP1 / Fold change vs veh, ARFIP1 / RFU, FAM179B / Fold change vs veh, FAM179B / RFU, BCL10 / Fold change vs veh, BCL10 / RFU, UHRF1BP1L / Fold change vs veh, UHRF1BP1L / RFU, BET1 / Fold change vs veh, BET1 / RFU, CNOT2 / Fold change vs veh, CNOT2 / RFU, ZNF268 / Fold change vs veh, ZNF268 / Fold change vs veh, ZNF507 / RFU, DGCR2 / Fold change vs veh, DGCR2 / RFU, WDSUB1 / Fold change vs veh, WDSUB1 / Fold change vs veh, HSP90B1 /// MIR3652 / RFU, ADSS / Fold change vs veh, ADSS / RFU, GK / Fold change vs veh, GK / RFU, ZNF148 / Fold change vs veh, ZNF148 / RFU, TAF9 / Fold change vs veh, TAF9 / RFU, SLC1A5 / Fold change vs veh, SLC1A5 / RFU, SLMO2 / Fold change vs veh, SLMO2 / RFU, ABCC4 / Fold change vs veh, ABCC4 / RFU, LOC101060439 /// RAP1B / Fold change vs veh, LOC101060439 /// RAP1B / RFU, RFX7 / Fold change vs veh, RFX7 / RFU, GTPBP10 / Fold change vs veh, GTPBP10 / RFU, CNEP1R1 / Fold change vs veh, CNEP1R1 / RFU, BIVM-ERCC5 /// ERCC5 / Fold change vs veh, BIVM-ERCC5 /// ERCC5 / RFU, ILF3 / Fold change vs veh, ILF3 / RFU 11762660_at / Fold change /veh 11762660_at / RFU VCAN (11757783_s_at) / Fold change /veh VCAN (11757783_s_at) / RFU DDX43 (11728927_at) / Fold change /veh DDX43 (11728927_at) / RFU KRT8 (11758188_x_at) / Fold change /veh KRT8 (11758188_x_at) / RFU NKD1 (11759106_at) / Fold change /veh NKD1 (11759106_at) / RFU SRD5A1 (11742802_a_at) / Fold change /veh SRD5A1 (11742802_a_at) / RFU TPSAB1 /// TPSB2 (11721975_s_at) / Fold change /veh TPSAB1 /// TPSB2 (11721975_s_at) / RFU GSTM3 (11746129_a_at) / Fold change /veh GSTM3 (11746129_a_at) / RFU IL23R (11737362_x_at) / Fold change /veh IL23R (11737362_x_at) / RFU TMEM51 (11727254_a_at) / Fold change /veh TMEM51 (11727254_a_at) / RFU PIWIL2 (11732686_x_at) / Fold change /veh PIWIL2 (11732686_x_at) / RFU ORM1 (11744905_x_at) / Fold change /veh ORM1 (11744905_x_at) / RFU CCDC152 (11743942_at) / Fold change /veh CCDC152 (11743942_at) / RFU ECM1 (11717891_a_at) / Fold change /veh ECM1 (11717891_a_at) / RFU IL23R (11748794_a_at) / Fold change /veh IL23R (11748794_a_at) / RFU TNFAIP8L3 (11732012_x_at) / Fold change /veh TNFAIP8L3 (11732012_x_at) / RFU MBOAT4 (11741988_at) / Fold change /veh MBOAT4 (11741988_at) / RFU 11764193_at / Fold change /veh 11764193_at / RFU TMEM53 (11763286_at) / Fold change /veh TMEM53 (11763286_at) / RFU MAGEB2 (11727129_at) / Fold change /veh MAGEB2 (11727129_at) / RFU TMEM200A (11744735_a_at) / Fold change /veh TMEM200A (11744735_a_at) / RFU CCDC152 (11751479_a_at) / Fold change /veh CCDC152 (11751479_a_at) / RFU FAM211A (11726209_a_at) / Fold change /veh FAM211A (11726209_a_at) / RFU RGS16 (11746705_a_at) / Fold change /veh RGS16 (11746705_a_at) / RFU VCAN (11755009_s_at) / Fold change /veh VCAN (11755009_s_at) / RFU RHOB (11743442_s_at) / Fold change /veh RHOB (11743442_s_at) / RFU RGS16 (11720943_a_at) / Fold change /veh RGS16 (11720943_a_at) / RFU RGS16 (11720944_at) / Fold change /veh RGS16 (11720944_at) / RFU, VPS4B / Fold change vs veh, VPS4B / RFU, CREB1 / Fold change vs veh, CREB1 / RFU, DNAJC13 / Fold change vs veh, DNAJC13 / RFU, GNAQ / Fold change vs veh, GNAQ / RFU, CDK5R1 / Fold change vs veh, CDK5R1 / RFU, ZRANB3 / Fold change vs veh, ZRANB3 / RFU, CUL4A / Fold change vs veh, CUL4A / RFU, CCNY / Fold change vs veh, CCNY / RFU, UFL1 / Fold change vs veh, UFL1 / RFU, COG3 / Fold change vs veh, COG3 / RFU, DIAPH2 / Fold change vs veh, DIAPH2 / RFU, SKA2 / Fold change vs veh, SKA2 / RFU, AFF3 / Fold change vs veh, AFF3 / RFU, LMF1 / Fold change vs veh, LMF1 / RFU, IPO11 / Fold change vs veh, IPO11 / RFU, DFFB / Fold change vs veh, DFFB / RFU, FOXP1 / Fold change vs veh, FOXP1 / RFU, CARD8 / Fold change vs veh, CARD8 / RFU, STRN3 / Fold change vs veh, STRN3 / RFU, ADK / Fold change vs veh, ADK / RFU, RASSF2 / Fold change vs veh, RASSF2 / RFU, WIPF1 / Fold change vs veh, WIPF1 / RFU, LARP1B / Fold change vs veh, LARP1B / RFU, RASA1 / Fold change vs veh, RASA1 / RFU, RB1 / Fold change vs veh, RB1 / RFU, PPFIA1 / Fold change vs veh, PPFIA1 / RFU, MAT2A / Fold change vs veh, MAT2A / RFU, CCT5 / Fold change vs veh, CCT5 / RFU, WDR92 / Fold change vs veh, WDR92 / RFU, CUX1 / Fold change vs veh, CUX1 / RFU, TTC7A / Fold change vs veh, TTC7A / RFU, TMEM135 / Fold change vs veh, TMEM135 / RFU, DEPTOR / Fold change vs veh, DEPTOR / RFU, CPM / Fold change vs veh, CPM / RFU, DNAJB6 / Fold change vs veh, DNAJB6 / RFU, CACNA2D3 / Fold change vs veh, CACNA2D3 / RFU, DTX4 / Fold change vs veh, DTX4 / RFU, TFCP2 / Fold change vs veh, TFCP2 / RFU, GMCL1 /// GMCL1P1 / Fold change vs veh, GMCL1 /// GMCL1P1 / RFU, AEBP2 / Fold change vs veh, AEBP2 / RFU, SNHG1 /// SNORD22 /// SNORD25 /// SNORD26 /// SNORD27 /// SNORD28 /// SNORD29 /// SNORD31 / Fold change vs veh, SNHG1 /// SNORD22 /// SNORD25 /// SNORD26 /// SNORD27 /// SNORD28 /// SNORD29 /// SNORD31 / Fold change (Aza/veh), C12orf56 (ProbeSet 11735607_a_at) / Fold change (ACY-1035/veh), C12orf56 (ProbeSet 11735607_a_at) / Fold change (Aza/veh), FGFR1OP (ProbeSet 11751329_s_at) / Fold change (ACY-1035/veh), FGFR1OP (ProbeSet 11751329_s_at) / Fold change (Aza/veh), VPS36 (ProbeSet 11739960_a_at) / Fold change (ACY-1035/veh), VPS36 (ProbeSet 11739960_a_at) / RFU SYPL1 (11715823_x_at) / Fold change /veh SYPL1 (11715823_x_at) / RFU IGFBP7 (11715501_s_at) / Fold change /veh IGFBP7 (11715501_s_at) / RFU REEP3 (11722064_at) / Fold change /veh REEP3 (11722064_at) / RFU IGLL1 (11728026_x_at) / Fold change /veh IGLL1 (11728026_x_at): dose or concentration left out as unconfirmed
# Details: MV-4-11 cells, 48 hours
smiles,measurement,value
Nc1ccc(-c2cccs2)cc1NC(=O)c1ccc2c(c1)cc(C1CC1)n2CCN1CCOCC1 [ACY-1035],RFU GSTM3 (11746129_a_at),10.76 RFU
